Results published in ChEMBL document CHEMBL4118147, “Structure-activity relationship of clovamide and its related compounds for the inhibition of amyloid β aggregation” (Bioorg Med Chem, 2018).
Activity calls are given as the source filed them. The rule behind the calls is not given here.

Tests used:
[1] = molecular target: T1, Amyloid-beta precursor protein (Homo sapiens, UniProt P05067); assay: Inhibition of amyloid beta (1 to 42) (unknown origin) aggregation after 24 hrs by thioflavin T fluorescence assay
T1 sequence (P05067 whole entry): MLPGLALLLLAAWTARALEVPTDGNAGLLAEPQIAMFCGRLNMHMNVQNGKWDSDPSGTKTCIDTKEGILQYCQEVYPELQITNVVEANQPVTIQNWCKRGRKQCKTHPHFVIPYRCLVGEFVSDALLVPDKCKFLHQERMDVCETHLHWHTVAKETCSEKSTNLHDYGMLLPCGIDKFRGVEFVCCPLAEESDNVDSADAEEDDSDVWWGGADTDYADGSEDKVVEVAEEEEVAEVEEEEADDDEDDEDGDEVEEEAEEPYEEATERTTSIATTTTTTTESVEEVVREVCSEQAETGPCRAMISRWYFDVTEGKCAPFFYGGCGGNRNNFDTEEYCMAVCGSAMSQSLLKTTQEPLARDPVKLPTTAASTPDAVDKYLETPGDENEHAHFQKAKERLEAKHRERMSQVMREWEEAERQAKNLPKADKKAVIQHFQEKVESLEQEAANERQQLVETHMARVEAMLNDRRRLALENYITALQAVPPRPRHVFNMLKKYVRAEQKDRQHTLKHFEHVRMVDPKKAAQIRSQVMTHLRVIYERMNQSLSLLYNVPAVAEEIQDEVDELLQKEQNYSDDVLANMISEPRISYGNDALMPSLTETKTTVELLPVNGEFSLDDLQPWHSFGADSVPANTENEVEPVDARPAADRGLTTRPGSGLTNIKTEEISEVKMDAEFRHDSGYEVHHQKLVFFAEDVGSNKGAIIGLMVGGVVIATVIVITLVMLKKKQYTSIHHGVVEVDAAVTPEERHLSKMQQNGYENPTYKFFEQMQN

[2] = molecular target: T1, Amyloid-beta precursor protein; assay: Inhibition of amyloid beta (1 to 42) (unknown origin) fibril formation at 100 uM after 24 hrs by silicotungstic acid staining based transmission electron microscopic analysis
[3] = molecular target: T1, Amyloid-beta precursor protein; assay: Inhibition of amyloid beta (1 to 42) (unknown origin) fibril formation after 24 hrs by silicotungstic acid staining based transmission electron microscopic analysis

| IC50 [1] | inhibition [2] | inhibition [1] | inhibition [3] | Structure (SMILES) |
| --- | --- | --- | --- | --- |
| > 100 µM | inactive |  |  | O=C(/C=C/c1ccc(O)cc1)N[C@@H](Cc1ccccc1)C(=O)O |
| 5.7 µM |  | Dose-dependent effect | Dose-dependent effect | O=C(/C=C/c1ccc(O)c(O)c1)N[C@@H](Cc1ccc(O)c(O)c1)C(=O)O |
| 87.8 µM |  | Dose-dependent effect | Dose-dependent effect | O=C(/C=C/c1ccc(O)c(O)c1)N[C@@H](Cc1ccc(O)cc1)C(=O)O |
| > 100 µM | inactive |  |  | COC(=O)[C@H](Cc1ccc(OC)c(OC)c1)NC(=O)/C=C/c1ccc(OC)c(OC)c1 |
| > 100 µM | inactive |  |  | O=C(/C=C/c1ccccc1)N[C@@H](Cc1ccc(O)cc1)C(=O)O |
| 4.9 µM |  | Dose-dependent effect | Dose-dependent effect | COC(=O)[C@H](Cc1ccc(O)c(O)c1)NC(=O)/C=C/c1ccc(O)c(O)c1 [N-CAFFEOYL-DOPA METHYL ESTER] |
| 72.9 µM |  | Dose-dependent effect | Dose-dependent effect | O=C(/C=C/c1ccc(O)c(O)c1)N[C@@H](Cc1ccccc1)C(=O)O |
| 22.7 µM |  | Dose-dependent effect | Dose-dependent effect | O=C(/C=C/c1ccccc1)N[C@@H](Cc1ccc(O)c(O)c1)C(=O)O |
| > 100 µM | inactive |  |  | O=C(/C=C/c1ccccc1)N[C@@H](Cc1ccccc1)C(=O)O |
| > 100 µM | inactive |  |  | O=C(/C=C/c1ccc(O)cc1)N[C@@H](Cc1ccc(O)c(O)c1)C(=O)O |
| > 100 µM | inactive |  |  | O=C(/C=C/c1ccc(O)cc1)N[C@@H](Cc1ccc(O)cc1)C(=O)O |
| 1.6 µM |  | Dose-dependent effect | Dose-dependent effect | O=C(/C=C/c1ccc(O)c(O)c1)N[C@H](Cc1ccc(O)c(O)c1)C(=O)O |
| 8.7 µM |  | Dose-dependent effect | Dose-dependent effect | O=C(CCc1ccc(O)c(O)c1)N[C@@H](Cc1ccc(O)c(O)c1)C(=O)O |
